Results on 16 compounds are retold here after ChEMBL document CHEMBL3875190, “MARK inhibitors: Declaring a No-Go decision on a chemical series based on extensive DMPK experimentation” (Bioorg Med Chem Lett, 2017).

Each structure is given as a SMILES string.

As usually defined, the clearance is the rate of elimination divided by the concentration. For orientation: logD means lipophilicity at a set pH, counting ionised and neutral species. Lower therefore signals a more hydrophilic compound. For orientation: Vd means a proportionality between amount in the body and measured concentration, not a real space. Low values mean little distribution into tissue, high ones wide distribution into tissue. As usually defined, the half-life is the time needed for the level to fall by half in the phase considered. Read a low half-life as rapid decline. As usually defined, the IC50 is the concentration at which inhibition is half-maximal. Low readings indicate greater potency in that assay, high ones weaker potency in that assay.

The nature of series [1]: Total plasma clearance in rat. It is filed as ADME, cell-free.
Series [2] can be described thus: Partition coefficient, logD of compound at pH 7 by HPLC analysis. The series is classed as physicochemical. The settings on record: octanol/water.
The nature of series [3]: Volume of distribution in rat. The series is classed as ADME. Conditions: in vivo.
Series [4] in a line: Half life in rat liver microsomes. The series is classed as ADME.
Series [5] in a line: Half life in human liver microsomes. It is filed as ADME. A general note: Microsomes from liver hold many membrane-bound enzymes, among them those of drug oxidation.
The target in series [6] is MAP/microtubule affinity-regulating kinase 3 (Homo sapiens, UniProt P27448). Put plainly: Inhibition of MARK3 (unknown origin).
MAP/microtubule affinity-regulating kinase 3, sequence (P27448 whole entry): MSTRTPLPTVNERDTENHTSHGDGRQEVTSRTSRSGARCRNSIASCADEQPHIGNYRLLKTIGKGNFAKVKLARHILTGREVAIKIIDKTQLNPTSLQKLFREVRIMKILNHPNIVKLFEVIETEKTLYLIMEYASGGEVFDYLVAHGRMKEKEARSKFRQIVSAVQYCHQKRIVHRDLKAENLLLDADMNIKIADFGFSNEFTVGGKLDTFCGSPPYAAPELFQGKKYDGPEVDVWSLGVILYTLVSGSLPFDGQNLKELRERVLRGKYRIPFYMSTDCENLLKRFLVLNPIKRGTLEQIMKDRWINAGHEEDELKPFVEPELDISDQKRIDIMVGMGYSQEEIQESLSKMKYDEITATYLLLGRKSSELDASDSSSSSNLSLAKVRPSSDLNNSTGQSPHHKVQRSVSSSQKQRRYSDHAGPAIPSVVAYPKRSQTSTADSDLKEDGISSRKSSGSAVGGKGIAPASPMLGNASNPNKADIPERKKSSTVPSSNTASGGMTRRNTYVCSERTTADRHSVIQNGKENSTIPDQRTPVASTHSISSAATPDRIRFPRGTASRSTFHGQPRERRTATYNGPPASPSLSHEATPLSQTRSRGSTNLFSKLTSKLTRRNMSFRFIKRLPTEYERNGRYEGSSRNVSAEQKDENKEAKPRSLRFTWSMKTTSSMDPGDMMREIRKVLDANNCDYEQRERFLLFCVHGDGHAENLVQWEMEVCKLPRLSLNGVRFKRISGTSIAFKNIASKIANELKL
Series [7] in a line: Half life in dog liver microsomes. It is filed as ADME, Canis lupus familiaris.
Series [8] can be described thus: Total plasma clearance in dog. It is filed as ADME, cell-free, Canis lupus familiaris.
A short description of series [9]: Drug excretion in bile duct-cannulated rat urine after 8 hrs by chromatographic analysis. The series is classed as ADME. Conditions: read-out: Drug excretion.
Series [10] can be described thus: Drug excretion in bile duct-cannulated rat bile after 8 hrs by chromatographic analysis. The series is classed as ADME, tissue-based. Conditions: read-out: Drug excretion.
A short description of series [11]: Drug recovery in bile duct-cannulated rat urine after 8 hrs by chromatographic analysis. The series is classed as ADME. The settings on record: read-out: Drug recovery.
Series [12] in a line: Drug recovery in bile duct-cannulated rat bile after 8 hrs by chromatographic analysis. It is filed as ADME, tissue-based. The settings on record: read-out: Drug recovery.
Series [13] is described as follows: Stability in rat liver cytosol. It is filed as ADME.
The nature of series [14]: Stability in human liver cytosol. It is filed as ADME.
Series [15] can be described thus: Drug metabolism in rat liver microsomes assessed as oxidative metabolite formation. It is filed as ADME.
Series [16] can be described thus: Drug metabolism in rat liver microsomes assessed as lactam hydrolysis. It is filed as ADME.
A short description of series [17]: Drug metabolism in human liver microsomes assessed as oxidative metabolite formation. The series is classed as ADME.
The nature of series [18]: Drug metabolism in human liver microsomes assessed as lactam hydrolysis. The series is classed as ADME.
A short description of series [19]: Drug metabolism in rat hepatocytes assessed as oxidation. It is filed as ADME, cell-based, Hepatocyte.
The nature of series [20]: Drug metabolism in rat hepatocytes assessed as glucuronidation. It is filed as ADME, cell-based, Hepatocyte.

Turning to `CC[C@H](C)N1C(=O)C(C)(C)c2cnc(Nc3ccc(CN4CC(C)OC(C)C4)cc3)nc21` (stereo partly specified), in series [1], the clearance amounted to 269 mL/min/kg. This compound also displayed a logD in series [2] of 3.98. In [3], this compound had a volume of distribution (Vd) of 14 L/kg.
`CC(=O)N1CCC(N2C(=O)C(C)(C)c3cnc(Nc4ccccc4)nc32)CC1` yielded a clearance in series [1] of 37 mL/min/kg. The compound also showed a logD in [2] of 1.6. The same compound showed a Vd in [3] of 1.1 L/kg. In addition, the half-life in series [4] is 38 min; in series [5], 30 min.
Turning to `CC[C@H](C)N1C(=O)C(C)(C)c2cnc(Nc3ccc(S(C)(=O)=O)cc3)nc21`, the figures for the clearance in [1] and in [8] were 84 mL/min/kg and 3 mL/min/kg, respectively. Besides, in series [2], the logD was found to be 3.09. The IC50 in [6] was determined as 120 nM. The half-life in series [4] worked out at 26 min; in [7], 80 min.
Consider `CC[C@H](C)N1C(=O)C(C)(C)c2cnc(Nc3ccc(-c4nnc(C)[nH]4)cc3)nc21`, for which the logD in series [2] is 2.21. This compound also came in with a half-maximal inhibitory concentration (IC50) in [6] of 80 nM. Moreover, the half-life in series [4] was 50 min; in series [7] it was 80 min. In series [8], this compound gave a clearance of 10 mL/min/kg.
Compound `CC[C@H](C)N1C(=O)C(C)(C)c2cnc(Nc3ccc(CN4CCN(C)CC4)cc3)nc21` registered a clearance in series [1] of 65 mL/min/kg. For the same compound, the logD in [2] was determined as 2.54. Moreover, the Vd in series [3] turned out to be 35 L/kg.
As for `[3H]c1nc(Nc2cccnc2)nc2c1C(C)(C)C(=O)N2[C@H](C)CC`, the dose excreted at 8 h in series [9] was more than 95%; in series [10], more than 95%; in [11], 60 to 90%; in [12], 60 to 90%. In addition, the Stability entry in series [13] and in series [14] was “Stable” each time.
Turning to `CC[C@H](C)N1C(=O)C(C)(C)c2cnc(Nc3ccc(CNC4CCCOC4)cc3)nc21` (stereo partly specified), in [1], the clearance was found to be 188 mL/min/kg. The logD in series [2] was 2.79. For the same compound, the Vd in series [3] worked out at 96 L/kg.
For `CC1(C)C(=O)N(C2CCCCC2)c2nc(Nc3cccnc3)ncc21` the same measures were 47 mL/min/kg, 2.82 and 2.8 L/kg.
In [1], `CC(=O)N1CCC(N2C(=O)C(C)(C)c3cnc(Nc4cccnc4)nc32)CC1` returned a clearance of 11 mL/min/kg. The same compound came in with a logD in series [2] of 1.18. Besides, in [3], the Vd turned out to be 1.4 L/kg. In series [6], this compound showed an IC50 of 2100 nM. Besides, the half-life in series [4] and in [5] was more than 60 min throughout.
As for `CC1(C)C(=O)N(C2CCCCC2)c2nc(Nc3cccc(CN4CCOCC4)c3)ncc21`, the Drug metabolism entry in series [15], in series [16], in [17] and in [18] was “Metabolite_Detected” each time.
Take `CC[C@H](C)N1C(=O)C(C)(C)c2cnc(Nc3ccc(CN4CCC(=O)N(C)CC4)cc3)nc21`: the clearance in series [1] amounted to 135 mL/min/kg. Moreover, in [2], the log distribution coefficient (logD) was found to be 2.68. The Vd in [3] worked out at 3 L/kg.
In the case of `CC[C@H](C)N1C(=O)C(C)(C)c2cnc(Nc3cccnc3)nc21`, the logD in series [2] is 2.56. In series [3], the Vd came out at 5.2 L/kg.
As for `CC1(C)C(=O)N([C@H]2CCc3c(O)cccc32)c2nc(Nc3ccccc3)ncc21`, the Drug metabolism entry in series [19] and in series [20] was “Metabolite_Detected” throughout.
In turn, `C[C@@H](c1ccc(F)cc1)N1C(=O)C(C)(C)c2cnc(Nc3cccnc3)nc21` had a clearance in series [1] of 154 mL/min/kg. Besides, in [2], the logD was found to be 2.81. The compound further gave a Vd in series [3] of 6.8 L/kg.
In [1], `CC(=O)N1CCC(N2C(=O)C(C)(C)c3cnc(Nc4ccc(F)cc4)nc32)CC1` registered a clearance of 37 mL/min/kg. The compound further had a logD in series [2] of 2.5. This compound also registered a Vd in series [3] of 1.6 L/kg. The same compound showed an IC50 in [6] of 2800 nM. The half-life in [4] is more than 60 min; in [5] it was 51 min.
`CC[C@H](C)N1C(=O)C2(CC2)c2cnc(Nc3cccnc3)nc21`: in series [19], the Drug metabolism result is given as “Metabolite_Detected”. Moreover, in series [1], the clearance was 81 mL/min/kg. In [2], the logD was found to be 2.3. This compound had a Vd in series [3] of 2.9 L/kg. The compound also came in with an IC50 in series [6] of 60 nM. Also, the half-life in series [4] stood at 25 min.
